This is an account of results in patent US10947596B2, “Compositions and methods for identification, assessment, prevention, and treatment of cancer using NFS1 biomarkers and modulators” (Dana-Farber Cancer Institute, Inc., priority 2014, dated 2021).

“Also recorded” adds a separate entry of the source.

The subject of one data set is ferroptosis. The conditions noted are these: cited from earlier work.
Another data set has as its system PTGS2. The conditions noted are these: cited from earlier work.
Another data set concerns HIF2alpha. The experiment in a line: Western blot for HIF2alpha in C2BBE1 cells. The format is cell-based. Conditions: parental C2BBE1 cells, treatment for 24 hours, relative to untreated.
The next data set relates to aconitase. Put plainly: Aconitase activity colorimetric assay in MKN74 lysates. Conditions: MKN74, constitutive shRNA or cDNA lentivirus, seven days post-infection. Type of data set: cell-based. As for the experimental part:
Aconitase activity was assessed three to eleven days post-infection or dox induction in one million cells using the Aconitase Activity calorimetric Assay Kit (Biovision K716-100). Succinate dehydrogenase activity was assessed using the Succinate Dehydrogenase Activity Colorimetric Assay Kit (Biovision K660-100).
(§1) In order to confirm that such pharmacodynamic markers associated with NFS1 can be used as adjuncts or surrogate markers for directly assessing NFS1 modulation, several experiments were performed. […] The stable lines were replated at 3 days post-dox, cultured for 3 days further, and assessed for NFS1 mRNA knockdown (top right panel) or PTGS2 (Cox2) mRNA levels (bottom right panel) by q-RT-PCR. […]
Similarly, after 7 days of NFS1 knockdown, decreases in aconitase activity and ferritin protein levels, along with upregulation of TFRC protein we observed (FIG. 15). […] These cells were then either lysed in RIPA buffer, quantified, and equally loaded on a SDS-PAGE gel for analysis by Western by staining for TfRC, NFS1, FTL, or GAPDH (loading control); or trypsinized, counted, lysed, and analyzed for aconitase activity. […] These cells were then either lysed in RIPA buffer, quantified, and equally loaded on a SDS-PAGE gel for analysis by Western and staining for NFS1 and GAPDH; or trypsinized, counted, lysed and analyzed for succinate dehydrogenase activity and aconitase activity. […]

The subject of another data set is MKN74 cells. The experiment in a line: Clonogenic growth assay in MKN74 cells. The format is cell-based. Conditions: MKN74 stable shRNA lines infected with constitutive cDNA lentivirus (GFP, WT NFS1 or NFS1^C381A), thirteen days post-doxycycline. As for the experimental part:
Clonogenic assays were performed for longer-term assessment of proliferative phenotypes. Three days following doxycycline (dox)-induction (of stable, inducible shRNA lines using 0.5 ug/mL dox) or infection (for constitutive shRNA expression), cells were trypsinized, counted (Countess Automated Cell Counter. Life Technologies), and re-plated in duplicate or triplicate in 6-well dishes at 750 to 3000 cells per well, depending on cell line. Clonogenic growth was monitored by RFP (pRSIT12 vector) or GFP (pRSI6 vector) expression at 1 week intervals using a laser scanning cytometer to measure colony area and numbers of colonies per well (IsoCyte, ImageXpress Velos). Two to three weeks after plating cells, cells were stained using crystal violet as an additional visualization of colony formation. […]
Knockdown of NFS1 inhibits clonogenic cell growth. […] Three days post-dox-induction, cells were trypsinized, counted, and plated at low density (750 cells per well of a 6-well dish) for assaying clonogenic growth. Additional cells were also collected and assessed by q-RT-PCR for NFS1 knockdown. Clonogenic growth (relative colony area shown in FIG. 5, as well as the number of objects) was monitored by red fluorescent protein (RFP) expression over two weeks scanning the plates on a laser scanning cytometer (IsoCyte, ImageXpress Velos). […]

For another data set, the system named is ferritin. Put plainly: Western blot for ferritin (FTH1/FTL) in MKN74. The format is cell-based. Conditions: MKN74, constitutive shRNA or cDNA lentivirus, seven days post-infection. As for the experimental part: Cells were lysed in NP-40 lysis buffer (Boston BioProducts) supplemented with 1× Halt Protease/Phosphatase Inhibitor Cocktail (Pierce Biotechnology, Inc.), 1 mM Dithiothreitol, and 1 mM Phenylmethanesulfonylfluoride. Lysates were cleared by centrifugation and quantified using a BCA Protein Assay Kit (Pierce Biotechnology, Inc.). Lysates were resolved by SDS-PAGE (using Mini-Protean TGX gradient gels, Bio-Rad Laboratories), transferred to nitrocellulose (using the iBlot Gel, Transfer Device and Dry Blotting System, Life Technologies) and blocked in 5% nonfat milk (Blotting-Grade Blocker, Bio-Rad). […] Peroxidase-conjugated secondary antibodies (Donkey anti-rabbit IgG or Donkey anti-mouse IgG, Jackson ImmunoResearch Laboratories, Inc.) were used at 1:5000 in 5% blocking solution, and protein bands were detected using Pico SuperSignal West Pico Chemiluminescent substrate (Thermo Scientific, Pierce Biotechnology, Inc.).
as §1
(Immunoblotting shows a protein as a band on a membrane.)

Consider `COC(=O)c1ccc([C@H]2c3[nH]c4ccccc4c3C[C@H](C(=O)OC)N2C(=O)CCl)cc1` [1S3R-RSL3, (1S,3R)-RSL3], for which the ferroptosis entry with ferroptosis is listed as “induce ferroptosis”. Besides, in the data set with PTGS2, the PTGS2 expression entry was “upregulation”.
`[Cl][Co][Cl]` [cobalt chloride]: in the data set with HIF2alpha, the HIF2alpha levels result was “modulation of HIF2alpha levels”.
As for “NFS1^C381A: mutant NFS1 that is catalytically dead due to a C381A mutation, dominant negative, expressed from lentiviral cDNA”, the aconitase activity result with aconitase was “decrease”. Also, the clonogenic growth entry in the data set on MKN74 cells was “growth inhibitory effects comparable to that of NFS1-sh5; also recorded: strongly inhibited cell growth”. For the same compound, in the data set with ferritin, the “ferritin (FTH1) levels” value is on record as “decrease”.
